In one test the test system is IGROV1. Nature of the test: NCI 60 cell panel growth inhibition. As to conditions: read-out: anti-tumour activity GI50. It counts as cell-based, human. The text has this: (§1) Examples 6 and 7 make use of the NCl 60 cell panel. This is an in vitro cell line screening project providing direct support to the National Cancer Institute's USA Developmental Therapeutic Programme for anti cancer discovery. The methodolgy for the cell line's operation is described by Boyd et al in Drug Development Research 1995, 34, 91-109.

The subject of the next test is COLO 205. Nature of the test: NCI 60 cell panel growth inhibition. As to conditions: COLON, read-out: anti-tumour activity GI50. It counts as cell-based, human.
From the text: as §1

For the next test, the system named is T-47D. As to the kind of experiment: NCI 60 cell panel growth inhibition. The format is cell-based, human. As to conditions: BREAST, read-out: anti-tumour activity GI50.
From the text: as §1

In the next test the test system is ACHN. Nature of the test: NCI 60 cell panel growth inhibition. The format is cell-based, human. As to conditions: RENAL, read-out: anti-tumour activity GI50.
From the text: as §1

The test system of another test is M14. As to the kind of experiment: NCI 60 cell panel growth inhibition. It counts as cell-based, human. As to conditions: MELAN, read-out: anti-tumour activity GI50.
From the text: as §1

Another test relates to SNB-19. Nature of the test: NCI 60 cell panel growth inhibition. The format is cell-based, human. As to conditions: CNS, read-out: anti-tumour activity GI50.
From the text: as §1

For the next test, the system named is 786-0. Nature of the test: NCI 60 cell panel growth inhibition. The format is cell-based, human. The settings on record: RENAL, read-out: anti-tumour activity GI50.
From the text: as §1

A further test deals with SF-268. Nature of the test: NCI 60 cell panel growth inhibition. It counts as cell-based, human. The settings on record: CNS, read-out: anti-tumour activity GI50.
From the text: as §1

For another test, the system named is HCT-116. As to the kind of experiment: NCI 60 cell panel growth inhibition. The settings on record: COLON, read-out: anti-tumour activity GI50. The format is cell-based, human.
From the text: as §1

Test [1] concerns linear double stranded plasmid pUC18 DNA. As to the kind of experiment: DNA crosslinking. It counts as biochemical. As to conditions: for pEC50: read-out: CR50 (concentration at which 50% of the duplex is crosslinked). As for the experimental part: Plasmid DNA pUC 18 was linearised by digestion with Hind III. The linear DNA was then dephosphorylated with BAP and ^32P-radiolabelled on the 5′-end. The DNA was then purified by EtOH precipitation to remove unincorporated γ-^32P ATP and the DNA resuspended in sterile double distilled H2O. To each reaction sample was added ^32P-end labelled DNA and drug at the appropriate concentration. Following incubation at 37° C. for the required time, the reaction was terminated by the addition of Stop Solution Buffer. The DNA-drug adduct was EtOH precipitated and dried by lyophilisation. Each dried DNA sample including an untreated DNA single strand as a control was denatured by resuspending in alkali denaturing buffer. The double stranded control DNA was then dissolved in sucrose loading buffer and the samples loaded and electrophoresed on a 20 cm long 0.8% horizontal agarose gel submerged in 1×TAE buffer at 40 V for 16 h. Gels were then dried and autoradiographed
Compound 20 which consists of both the epoxide and mustard functionality was tested at concentrations between 0.1 and 50 μM at 1 h, 2 h and 3 h intervals. […] Crosslink formation starts at concentrations as low as 0.1 μM and reaches 100% crosslinking at −10 μM. After incubation for an hour the CR50 (concentration at which 50% of the duplex is crosslinked) was determined to be 3.1 μM. The percentage of crosslinked DNA was determined from autoradiograph densitometry.

The next test has as its system HCT-15. As to the kind of experiment: NCI 60 cell panel growth inhibition. It counts as cell-based. The settings on record: Homo sapiens, COLON, read-out: anti-tumour activity GI50.
From the text: as §1

The test system of another test is SNB-75. As to the kind of experiment: NCI 60 cell panel growth inhibition. The format is cell-based. The settings on record: Homo sapiens, CNS, read-out: anti-tumour activity GI50.
From the text: as §1

pEC50: −log10 of the molar value. Like-named read-outs stand apart in the source and are kept apart here.

For orientation: GI50 means the concentration that inhibits growth by half.

In the case of `COc1cc(C(=O)OC(C(=O)NCCN2CCCC(Cl)C2)C2(C)CO2)c2cccc(C)c2c1` (stereo not drawn) [Compound 20], the GI50 in the test with IGROV1 (OVAR) came out at 12.1 µM; in the test with COLO 205 it was 13.8 µM; in the test on T-47D, 23 µM; in the test on ACHN, 1.17 µM; in the test with M14, 100 µM; in the test with SNB-19, 14.3 µM. Also, the GI50 with 786-0 worked out at 100 µM; in the test with SF-268 it was 16.6 µM; in the test on HCT-116, 100 µM. In test [1] (1 h incubation), the “concentration at which crosslink formation starts” value turned out to be 0.1 µM. The pEC50 is 5.51 in test [1] (1 h incubation, 37° C.); 5.57 in [1] (2 h incubation); 5.66 in test [1] (3 h incubation).

Turning to `C=C(C)[C@H](OC(=O)c1cc(OC)cc2c(C)cccc12)C(=O)NCCN1CCCC(Cl)C1` (stereo partly drawn) [Compound 21], the GI50 with HCT-15 worked out at 0.049 µM; with SNB-75 it was 1.2 µM; in the test with IGROV1 (Homo sapiens, IGROV-1, OVAR), 4.21 µM; in the test on COLO 205 (Homo sapiens) it was 6.08 µM; with T-47D (Homo sapiens, T47D), 10.8 µM; in the test with ACHN (Homo sapiens), 1.78 µM. In addition, the GI50 in the test on M14 (Homo sapiens) came to 1.75 µM; in the test with SNB-19 (Homo sapiens), 5.63 µM; in the test with 786-0 (Homo sapiens), 4.48 µM; with SF-268 (Homo sapiens), 11.9 µM; in the test on HCT-116 (Homo sapiens), 12.8 µM.

For the origin of these results see patent US20090233966A1, “Analogues of the Azinomycins as Anti-Tumour Agents and as Prodrugs” (School of Pharmacy, University of London, priority 2005, published 2009).
